Values of other authors as cited in patent US7351710B2, “Preparation of amorphous form of indiplon” (Mai De Ltd., priority 2005, dated 2008).

Row | Compound | solubility (in water, crystalline form) [µg/mL] | solubility in water (in words) (water)
1 | CC(=O)N(C)c1cccc(-c2ccnc3c(C(=O)c4cccs4)cnn23)c1 [crystalline indiplon, N-Methyl-N-[3-[3-[2-thienylcarbonyl]pyrazolo[1,5-a]pyrimidin-7-yl]phenyl]acetamide] | 20 to 30 | 
2 | CC(=O)N(C)c1cccc(-c2ccnc3c(C(=O)c4cccs4)cnn23)c1 [Indiplon, N-Methyl-N-[3-[3-[2-thienylcarbonyl]pyrazolo[1,5-a]pyrimidin-7-yl]phenyl]acetamide] |  | practically insoluble
